# pIC50: −log10 of the molar value.
# Assays:
# [1] = biological target: T1, ErbB2 or EGFR; experiment: ErbB family substrate phosphorylation enzyme assay (HTRF), Method A or Method B; format: biochemical; conditions: Method B: enzyme mix pre-incubated with compound 1 hour at 20° C., started with substrate mix
# T1 construct: enzymes purified from a baculovirus expression system; Reagent production was conducted essentially as described in Brignola, P. S., et al, (2002) J. Biol. Chem. 277(2): 1576-1585
# Summary of the method: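 Baculovirus-expressed EGFR or ErbB2 (0.8 or 10 nM in enzyme mix) phosphorylates biotinylated Peptide C with 20 µM ATP and 0.8 µM peptide (substrate-mix levels), MnCl2, pH 7.5. Reaction ran 90 min at 20 °C with EDTA stop and HTRF anti-phosphotyrosine read. Method A: enzyme added last; Method B: 1 h enzyme–compound preincubation.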
# [2] = tested on: BT474 and HN5 tumor cell lines; experiment: Celltiter Glo growth inhibition assay (cellular Method B); format: cell-based; conditions: Homo sapiens, BT-474, 72 h, 3 days, read-out: Activity (Method): growth inhibition IC50 class
# Experimental: (§1) Human breast tumor cells (BT474) were cultured in RPMI, (Invitrogen, 22400) containing 10% fetal bovine serum (FBS). Human head and neck tumor cells (HN5) were cultured in low glucose DMEM (Invitrogen, 12320) containing 10% FBS. Human colon tumor cells (Colo205) were cultured in DMEM (Invitrogen, 10564) containing 10% FBS. All cell lines were maintained at 37° C. in a humidified 5% CO2, 95% air incubator. Cells were harvested using trypsin/EDTA, counted using a haemocytometer, and plated in 30 microliters of the appropriate media described above, at the following densities, in a half area, black-walled, 96-well tissue culture plate (Corning 3882): BT474 3,000 cells/well, HN5 500 cells/well and Colo205 cells, 3,000 cells/well. The next day, compounds were diluted in DMEM containing […] gentamicin, from 10 mM stock solutions in DMSO. 30 microliters/well of these dilutions were added to the 30 microliters/well of media currently on the cell plates. Medium containing 0.6% DMSO was added to control wells. The final concentration of DMSO in all wells was 0.3%. Cells were incubated at 37° C., 5% CO2 for 3 days. Cell biomass was estimated using Celltiter Glo (Promega G7571). Briefly, plates were removed from the incubator and allowed to equilibrate to rt for 30 minutes. 60 microliters of Celltiter Glo reagent were added to each well of the treated cells and plates were shaken on an orbital plate shaker for 2 min. Plates were incubated without shaking for 30 more min and read in a luminometer with an integration time of 0.5 seconds per well. Percent inhibition of cell growth was calculated relative to vehicle treated control wells. Concentration of compound that inhibits 50% of vehicle control cell growth (IC50) was interpolated using nonlinear regression (Levenberg-Marquardt) and the equation, y=Vmax*(1−(x/(K+x)))+Y2, where “K” was equal to the IC50.
# [3] = tested on: Colo205 tumor cell lines; experiment: Celltiter Glo growth inhibition assay (cellular Method B), Colo205; format: cell-based; conditions: Homo sapiens, COLO 205, 72 h, 3 days, read-out: Activity (Method): growth inhibition IC50 class
# Experimental: as §1
Structure (SMILES),Activity (Method): pIC50 class against ErbB2 or EGFR [1],pIC50 [2],pIC50 [3]
"CN(C)C1Cc2ccc(Nc3nccc(-c4c(-c5ccc(F)c(NC(=O)c6c(F)cccc6F)c5)nn5ccccc45)n3)cc2C1.O=C(O)C(F)(F)F (stereo not drawn) [Example 181, N-{5-[3-(2-{[2-(Dimethylamino)-2,3-dihydro-1H-inden-5-yl]amino}-4-pyrimidinyl)pyrazolo[1,5-a]pyridin-2-yl]-2-fluorophenyl}-2,6-difluorobenzamide]",+++ (B) (at least one pIC50 measurement of greater than 7 against either ErbB2 or EGFR),> 7.00,6.00 to 7.00
"CN(C)CCOc1cccc(Nc2nccc(-c3c(-c4cccc(NC(=O)c5c(F)cccc5F)c4)nn4cccc(F)c34)n2)c1 [Example 168, N-[3-(3-{2-[(3-{[2-(Dimethylamino)ethyl]oxy}phenyl)amino]-4-pyrimidinyl}-4-fluoropyrazolo[1,5-a]pyridin-2-yl)phenyl]-2,6-difluorobenzamide]",+++ (B) (at least one pIC50 measurement of greater than 7 against either ErbB2 or EGFR),> 7.00,< 6.00
"O=C(Nc1cccc(-c2nn3cc(F)ccc3c2-c2ccnc(Nc3cccc(CN4CCCC4)c3)n2)c1)c1c(F)cccc1F [Example 172, 2,6-Difluoro-N-{3-[6-fluoro-3-(2-{[3-(1-pyrrolidinylmethyl)phenyl]amino}-4-pyrimidinyl)pyrazolo[1,5-a]pyridin-2-yl]phenyl}benzamide]",+++ (B) (at least one pIC50 measurement of greater than 7 against either ErbB2 or EGFR),> 7.00,< 6.00
"Cc1ccc(F)c(C(=O)Nc2cccc(-c3nn4ccccc4c3-c3ccnc(Nc4ccc(OCCN(C)C)c(Cl)c4)n3)c2)c1F.O=C(O)C(F)(F)F [Example 186, N-[3-(3-{2-[(3-chloro-4-{[2-(dimethylamino)ethyl]oxy}phenyl)-amino]-4-pyrimidinyl}pyrazolo[1,5-a]pyridin-2-yl)phenyl]-2,6-difluoro-3-methylbenzamide-TFA]",+++ (B) (at least one pIC50 measurement of greater than 7 against either ErbB2 or EGFR),> 7.00,< 6.00
"CN(C)CCNCc1cccc(Nc2nccc(-c3c(-c4cccc(NC(=O)c5c(F)cccc5F)c4)nn4ccccc34)n2)c1 [Example 185, N-{3-[3-(2-{[3-({[2-(Dimethylamino)ethyl]amino}methyl)phenyl]-amino}-4-pyrimidinyl)pyrazolo[1,5-a]pyridin-2-yl]phenyl}-2,6-difluorobenzamide]",+++ (B) (at least one pIC50 measurement of greater than 7 against either ErbB2 or EGFR),> 7.00,< 6.00
"O=C(Nc1cccc(-c2nn3ccccc3c2-c2ccnc(Nc3cccc(F)c3)n2)c1)c1c(F)cccc1F [Example 115, 2,6-Difluoro-N-[3-(3-{2-[(3-fluorophenyl)amino]-4-pyrimidinyl}pyrazolo[1,5-a]pyridin-2-yl)phenyl]benzamide]",++ (B) (at least one pIC50 measurement greater than 6 against either ErbB2 or EGFR but no measurement greater than pIC50 of 7),> 7.00,< 6.00
"O=C(Nc1cccc(-c2nn3cccc(F)c3c2-c2ccnc(Nc3cccc(CN4CCCC4)c3)n2)c1)c1c(F)cccc1F [Example 170, 2,6-Difluoro-N-{3-[4-fluoro-3-(2-{[3-(1-pyrrolidinylmethyl)-phenyl]amino}-4-pyrimidinyl)pyrazolo[1,5-a]pyridin-2-yl]phenyl}benzamide]",+++ (B) (at least one pIC50 measurement of greater than 7 against either ErbB2 or EGFR),6.00 to 7.00,< 6.00
"CN(C)CCOc1ccc(Nc2nccc(-c3c(-c4cccc(NC(=O)c5c(F)cccc5F)c4)nn4ccccc34)n2)cc1Cl [Example 128, N-[3-(3-{2-[(3-Chloro-4-{[2-(dimethylamino)ethyl]-oxy}phenyl)amino]-4-pyrimidinyl}pyrazolo[1,5-a]pyridin-2-yl)phenyl]-2,6-difluorobenzamide]",+++ (B) (at least one pIC50 measurement of greater than 7 against either ErbB2 or EGFR),> 7.00,< 6.00
"CS(=O)(=O)CCNCc1cccc(Nc2nccc(-c3c(-c4cccc(NC(=O)c5cc(F)ccc5F)c4)nn4ccccc34)n2)c1 [Example 187, 2,5-Difluoro-N-{3-[3-(2-{[3-({[2-(methylsulfonyl)ethyl]amino}-methyl)phenyl]amino}-4-pyrimidinyl)pyrazolo[1,5-a]pyridin-2-yl]phenyl}benzamide]",+++ (B) (at least one pIC50 measurement of greater than 7 against either ErbB2 or EGFR),> 7.00,6.00 to 7.00
"CS(=O)(=O)CCNCc1cccc(Nc2nccc(-c3c(-c4cccc(NC(=O)c5c(F)cccc5F)c4)nn4ccccc34)n2)c1 [Example 188, 2,6-Difluoro-N-{3-[3-(2-{[3-({[2-(methylsulfonyl)ethyl]amino}-methyl)phenyl]amino}-4-pyrimidinyl)pyrazolo[1,5-a]pyridin-2-yl]phenyl}benzamide]",+++ (B) (at least one pIC50 measurement of greater than 7 against either ErbB2 or EGFR),> 7.00,< 6.00
"CNCc1cccc(Nc2nccc(-c3c(-c4cccc(NC(=O)c5c(F)cccc5F)c4)nn4ccccc34)n2)c1 [Example 183, 2,6-Difluoro-N-(3-{3-[2-({3-[(methylamino)methyl]phenyl}amino)-4-pyrimidinyl]pyrazolo[1,5-a]pyridin-2-yl}phenyl)benzamide]",+++ (B) (at least one pIC50 measurement of greater than 7 against either ErbB2 or EGFR),> 7.00,< 6.00
"CN1CCc2ccc(Nc3nccc(-c4c(-c5cccc(NC(=O)c6c(F)cccc6F)c5)nn5cc(F)ccc45)n3)cc2C1 [Example 173, 2,6-Difluoro-N-[3-(6-fluoro-3-{2-[(2-methyl-1,2,3,4-tetrahydro-7-isoquinolinyl)amino]-4-pyrimidinyl}pyrazolo[1,5-a]pyridin-2-yl)phenyl]benzamide]",+++ (B) (at least one pIC50 measurement of greater than 7 against either ErbB2 or EGFR),> 7.00,< 6.00
"O=C(Nc1cccc(-c2nn3cc(C(F)(F)F)ccc3c2-c2ccnc(Nc3cccc(F)c3)n2)c1)c1c(F)cccc1F [Example 191, 2,6-Difluoro-N-{3-[3-{2-[(3-fluorophenyl)amino]-4-pyrimidinyl}-6-(trifluoromethyl)pyrazolo[1,5-a]pyridin-2-yl]phenyl}benzamide]",++ (B) (at least one pIC50 measurement greater than 6 against either ErbB2 or EGFR but no measurement greater than pIC50 of 7),< 6.00,< 6.00
"NCc1cccc(Nc2nccc(-c3c(-c4cccc(NC(=O)c5c(F)cccc5F)c4)nn4ccccc34)n2)c1 [Example 180, N-{3-[3-(2-{[3-(Aminomethyl)phenyl]amino}-4-pyrimidinyl)pyrazolo[1,5-a]pyridin-2-yl]phenyl}-2,6-difluorobenzamide]",+++ (B) (at least one pIC50 measurement of greater than 7 against either ErbB2 or EGFR),> 7.00,< 6.00
"CS(=O)(=O)Cc1cccc(Nc2nccc(-c3c(-c4cccc(NC(=O)c5c(F)cccc5F)c4)nn4ccccc34)n2)c1 [Example 135, 2,6-Difluoro-N-(3-{3-[2-({3-[(methylsulfonyl)methyl]phenyl}amino)-4-pyrimidinyl]pyrazolo[1,5-a]pyridin-2-yl}phenyl)benzamide]",+++ (B) (at least one pIC50 measurement of greater than 7 against either ErbB2 or EGFR),> 7.00,< 6.00
"CN1CCN(CCCOc2ccc(Nc3nccc(-c4c(-c5cccc(NC(=O)c6c(F)cccc6F)c5)nn5ccccc45)n3)cc2Cl)CC1 [Example 164, N-[3-(3-{2-[(3-chloro-4-{[3-(4-methyl-1-piperazinyl)propyl]oxy}-phenyl)amino]-4-pyrimidinyl}pyrazolo[1,5-a]pyridin-2-yl)phenyl]-2,6-difluorobenzamide]",+++ (B) (at least one pIC50 measurement of greater than 7 against either ErbB2 or EGFR),> 7.00,< 6.00

# — patent publication US7812022B2 (GlaxoSmithKline LLC, priority 2004, dated 2010)
